Data set [1] can be described thus: Drug metabolism assessed as trypsin (unknown origin)-mediated digestion by measuring compound remaining at 0.09 uM after 60 mins by HPLC analysis. The data set is classed as ADME. To be noted: human, read-out: Stability.
The next data set relates to Klebsiella pneumoniae. The experiment in a line: Antibacterial activity against Klebsiella pneumoniae ATCC 10031 assessed as growth inhibition after 24 hrs by broth microdilution method. To be noted: ATCC 10031, 24 h. The data set is classed as functional. In general terms: In broth dilution the organism is exposed to a series of concentrations in liquid medium.
Data set [2] in a line: Drug metabolism assessed as trypsin (unknown origin)-mediated digestion by measuring half life at 0.09 uM by HPLC analysis. In kind it is ADME. To be noted: human.
A further data set relates to Proteus mirabilis. In words: Antibacterial activity against Proteus mirabilis ATCC 25933 assessed as growth inhibition after 24 hrs by broth microdilution method. The data set is classed as functional. To be noted: ATCC 25933, 24 h.
Another data set concerns Shigella dysenteriae. The experiment in a line: Antibacterial activity against Shigella dysenteriae ATCC 9752 assessed as growth inhibition after 24 hrs by broth microdilution method. In kind it is functional. Particulars: ATCC 9752, 24 h; call rule not given here.
A further data set relates to Salmonella typhimurium. In words: Antibacterial activity against Salmonella typhimurium ATCC 14028 assessed as growth inhibition after 24 hrs by broth microdilution method. The data set is classed as functional, Salmonella enterica subsp. enterica serovar Typhimurium. Particulars: Salmonella enterica, ATCC 14028, 24 h.
Another data set has as its system Pseudomonas aeruginosa. In words: Antibacterial activity against Pseudomonas aeruginosa ATCC 27853 assessed as growth inhibition after 24 hrs by broth microdilution method. In kind it is functional. Particulars: ATCC 27853, 24 h.
The next data set relates to Escherichia coli. In words: Antibacterial activity against Escherichia coli ATCC 25922 assessed as growth inhibition after 24 hrs by broth microdilution method. In kind it is functional. To be noted: ATCC 25922, 24 h.
The test system of data set [3] is Staphylococcus epidermidis. The experiment in a line: Antibacterial activity against Staphylococcus epidermidis ATCC 12228 assessed as growth inhibition after 24 hrs by broth microdilution method. In kind it is functional. To be noted: ATCC 12228, 24 h.
The test system of another data set is Bacillus spizizenii. In words: Antibacterial activity against Bacillus subtilis ATCC 6633 assessed as growth inhibition after 24 hrs by broth microdilution method. The data set is classed as functional. To be noted: ATCC 6633, 24 h.
For a further data set, the system named is Staphylococcus aureus. In words: Antibacterial activity against Staphylococcus aureus ATCC 6538p assessed as growth inhibition after 24 hrs by broth microdilution method. In kind it is functional.
Data set [4] in a line: Drug metabolism assessed as trypsin (unknown origin)-mediated digestion at 0.09 uM after 15 mins by HPLC analysis. In kind it is ADME. Particulars: human, 0.25 h.

Values after ≈ are worked out from the molar mass of the structure shown. *1 amine or outer side, *2 acyl side, *3 side chain or, on linkers, in order; H or OH if unused. Where a SMILES comes first, the peptide text is derived from it. Bridges are numbered along the chain shown (N, C = ends). [ ]: non-standard residue; d: D form. Nle(6-ylidene) = O=C([C@H](CCCC=[*:3])N[*:1])[*:2]; S5 = C=CCCC[C@](C)(N)C(=O)O Where only a bound is given, the exact number is not on record here.

Usually MIC stands for the least concentration at which growth counts as inhibited. As a reminder, the half-life is how long it takes for the measured level to halve. Turning to `CC(=O)N[C@H](C(=O)N[C@@H](CC(C)C)C(=O)N[C@@H](CCCCN)C(=O)N[C@@H](CCC(N)=O)C(=O)N[C@@H](Cc1ccccc1)C(=O)N[C@@]1(C)CCC/C=C\CCC[C@@H](C(=O)N[C@@H](CCCCN)C(=O)N[C@@H](Cc2c[nH]c3ccccc23)C(=O)N[C@@H](CC(C)C)C(=O)N[C@H](C(=O)N[C@@H](CCCCN)C(N)=O)C(C)C)NC(=O)[C@H](C(C)C)NC(=O)CNC(=O)[C@H](CCCCN)NC1=O)[C@@H](C)O` (Ac-TLKQF[S5]KGV[Nle(6-ylidene)]KWLVK-NH2; staple (Z) 6-10), in data set [1], the remaining at 1 h, 0.09 µM is over 90%. Further, the minimum inhibitory concentration (MIC) in the data set on Klebsiella pneumoniae, with Proteus mirabilis, with Shigella dysenteriae, in the data set with Salmonella typhimurium, with Pseudomonas aeruginosa and in the data set with Escherichia coli was over 200 µg/mL in each case. The MIC in data set [3] is over 200 µg/mL; with Bacillus spizizenii, 3.13 µg/mL (≈ 1.69 µM); with Staphylococcus aureus, 3.13 µg/mL (≈ 1.69 µM). The half-life at 0.09 µM in [2] was found to be 1.2 h.
Turning to `CC(=O)N[C@H](C(=O)N[C@@H](CC(C)C)C(=O)N[C@@H](CCCCN)C(=O)N[C@@H](CCC(N)=O)C(=O)N[C@@H](Cc1ccccc1)C(=O)N[C@@]1(C)CCC/C=C\CCC[C@@H](C(=O)N[C@@H](CCCCN)C(=O)N[C@@H](CC(=O)O)C(=O)N[C@@H](CC(C)C)C(=O)N[C@H](C(=O)N[C@@H](CCCCN)C(N)=O)C(C)C)NC(=O)[C@H](Cc2c[nH]c3ccccc23)NC(=O)CNC(=O)[C@H](CCCCN)NC1=O)[C@@H](C)O` (Ac-TLKQF[S5]KGW[Nle(6-ylidene)]KDLVK-NH2; staple (Z) 6-10), the remaining at 1 h, 0.09 µM in data set [1] stood at 75%. For the same compound, the MIC with Klebsiella pneumoniae is 50 µg/mL (≈ 26.8 µM); in the data set with Proteus mirabilis, over 200 µg/mL; with Shigella dysenteriae, 50 µg/mL (≈ 26.8 µM); in the data set on Salmonella typhimurium, over 200 µg/mL; with Pseudomonas aeruginosa it was 200 µg/mL (≈ 107 µM); with Escherichia coli, 100 µg/mL (≈ 53.5 µM). The MIC is over 200 µg/mL in data set [3], 6.25 µg/mL (≈ 3.35 µM) in the data set with Bacillus spizizenii and 6.25 µg/mL (≈ 3.35 µM) in the data set with Staphylococcus aureus. Besides, the half-life at 0.09 µM in data set [2] was determined as 0.617 h.
Turning to `CC(=O)N[C@H](C(=O)N[C@@H](CC(C)C)C(=O)N[C@@H](CCCCN)C(=O)N[C@@H](CCC(N)=O)C(=O)N[C@@H](Cc1c[nH]c2ccccc12)C(=O)N[C@@]1(C)CCC/C=C\CCC[C@@H](C(=O)N[C@@H](CCCCN)C(=O)N[C@@H](CC(=O)O)C(=O)N[C@@H](CC(C)C)C(=O)N[C@H](C(=O)N[C@@H](CCCCN)C(N)=O)C(C)C)NC(=O)[C@H](C(C)C)NC(=O)CNC(=O)[C@H](CCCCN)NC1=O)[C@@H](C)O` (Ac-TLKQW[S5]KGV[Nle(6-ylidene)]KDLVK-NH2; staple (Z) 6-10), in data set [1], the remaining at 1 h, 0.09 µM was over 90%. In addition, the MIC in the data set with Klebsiella pneumoniae is 50 µg/mL (≈ 27.5 µM); with Proteus mirabilis, over 200 µg/mL; in the data set on Shigella dysenteriae, 50 µg/mL (≈ 27.5 µM); in the data set with Salmonella typhimurium, over 200 µg/mL; with Pseudomonas aeruginosa it was over 200 µg/mL; with Escherichia coli it was 100 µg/mL (≈ 54.9 µM). The MIC in data set [3] turned out to be 100 µg/mL (≈ 54.9 µM); with Bacillus spizizenii, 6.25 µg/mL (≈ 3.43 µM); with Staphylococcus aureus it was 6.25 µg/mL (≈ 3.43 µM). Besides, in [2], the half-life at 0.09 µM turned out to be 1.18 h.
With Ac-GILDTLKQFAKGVGKWLVKGAAQ-NH2, the MIC with Klebsiella pneumoniae, in the data set with Proteus mirabilis, in the data set on Shigella dysenteriae, in the data set on Salmonella typhimurium, in the data set on Pseudomonas aeruginosa and in the data set with Escherichia coli was over 200 µg/mL in each case. For the same compound, the MIC in [3] is over 200 µg/mL; in the data set on Bacillus spizizenii, 50 µg/mL; in the data set on Staphylococcus aureus, 100 µg/mL. In addition, the Drug metabolism entry in data set [4] is “Active”.
Ac-TLKQFAKGVGKWLVK-NH2: the MIC in the data set with Klebsiella pneumoniae was over 200 µg/mL; in the data set on Proteus mirabilis, over 200 µg/mL; with Shigella dysenteriae it was over 200 µg/mL; with Salmonella typhimurium, over 200 µg/mL; with Pseudomonas aeruginosa, over 200 µg/mL; with Escherichia coli it was 200 µg/mL. Moreover, the MIC was over 200 µg/mL in data set [3], 200 µg/mL with Bacillus spizizenii and 100 µg/mL in the data set with Staphylococcus aureus. Also, the Drug metabolism entry in data set [4] is “Active”.
